Measured values from ChEMBL document CHEMBL3507680, “University of Dundee, Gates Library screen for HepG2 cell viability”.

Assay: Human HepG2 cell viability assay in 384 well format
Format: toxicity, cell-based
Parameters: dose 125 nL, time 70.5 hour; cytotoxicity at 70.5 h: concentration not given beside the values
Conditions: HepG2 cells, read-out: Inhibition

| SMILES | cytotoxicity at 70.5 h [%] |
| --- | --- |
| CC(C#N)CSc1ccccc1NCC(=O)NC(=O)NC(C)(C)C (stereo unspecified) | -2.56 |
| CC(C#N)CSc1ccccc1NCC(=O)NCc1cccs1 (stereo unspecified) | 0.858 |
| CCNC(=O)CNC(=O)Nc1cccc(Cl)c1SC(F)F | 0.0144 |
| NS(=O)(=O)N1CCc2ccc(NC(=O)Cc3ccccc3F)cc21 | 22.4 |
| Cc1nc(C2CCCN(C(=O)c3csc(C)n3)C2)no1 (stereo unspecified) | 4.29 |
| Cc1nc(CC(=O)N2CCOC(c3nc(C(C)(C)C)n[nH]3)C2)cs1 (stereo unspecified) | 20.6 |
| Cc1ccn(-c2ccccc2NCc2cscn2)n1 | 10.6 |
| O=C(Nc1ccnc(OC2CCOC2)c1)c1ccc(F)cc1Cl (stereo unspecified) | 0.257 |
| CN(C)CCN(Cc1ccc(Cl)cc1)C(=O)c1cnccn1 | 3.24 |
| Cc1cc(CNc2ccc(C(F)(F)F)cc2)no1 | -7.03 |
| Cn1cc(CNC2CCOCC2)c(-c2cc3ccccc3o2)n1 | -5.58 |
| CCOc1ccc(C(F)(F)F)cc1NCc1cc(C)on1 | 26.7 |
| Cn1[nH]c(C2CCC2)c(-c2ccc3c(c2)OCO3)c1=N | -3.82 |
| CCOc1ccc(C(F)(F)F)cc1NCc1nc(C)c(C)o1 | -2.62 |
| O=C(Cn1cnnn1)NCC1(O)CCCc2ccccc21 (stereo unspecified) | -6.92 |
| Cn1cc(C(C)(O)CNC(=O)c2cc(Br)cn2C)cn1 (stereo unspecified) | 7.26 |
| COCCN1CCN(Cc2nnc(-c3occc3C)o2)CC1 | -6.39 |
| Cn1cc(Br)cc1C(=O)NCC(C)(O)c1ccsc1 (stereo unspecified) | -9.72 |
| CC(C)N(CCS(C)(=O)=O)Cc1csc(Cc2ccc(Cl)cc2)n1 | 3.51 |
| CC(C)N(CCS(C)(=O)=O)Cc1csc(-c2ccccc2F)n1 | -13.1 |
| O=C(CN1CCOC(Cn2cncn2)C1)NC(C1CC1)C1CC1 (stereo unspecified) | 9.73 |
| c1ccc(N2CCC(NCCc3ccc(-n4cccn4)cc3)CC2)nc1 | 21.5 |

| SMILES | cytotoxicity at 70.5 h [%] |
| --- | --- |
| CSCC(CCO)NC(=O)c1cccc(F)c1Cl (stereo unspecified) | 24.5 |
| Cn1nc(Br)c2c(NCCNc3ncccn3)ncnc21 | -21.3 |
| Cc1cc(S(C)(=O)=O)c(C)c(S(=O)(=O)N2CCCC(C)C2)c1 (stereo unspecified) | -7.71 |
| Cn1nc2c(cc1=O)CN(CCOc1ccccc1C#N)CC2 | 35 |
| CC(C)n1nc2c(cc1=O)CN(CCOc1ccc(C#N)cc1)CC2 | -12.5 |
| COCC(=O)N1CCN(Cc2cc(F)cc(Br)c2)CC1 | -6.59 |
| CCc1n[nH]c(=O)c(C(=O)N2CCSCC2)c1CC | -9.39 |
| Cc1ccc(C(C)NC(=O)N2CCNC(=O)CC2)cc1F (stereo unspecified) | -17.7 |
| Cc1nccn1-c1ccc(C(C)Nc2cnn(C)c(=O)c2Cl)cc1 (stereo unspecified) | 9.7 |
| CCC(NC(=O)NCc1cccc(N(C)C)n1)c1ccccc1OC (stereo unspecified) | -7.5 |
| CCCC(NC(=O)NCc1cccc(N(C)C)n1)c1ccccn1 (stereo unspecified) | -18.8 |
| COCC(NC(=O)c1cn(-c2cccc(Cl)c2F)nn1)C1CC1 (stereo unspecified) | -0.579 |
| COCC(C)(C#N)NC(=O)c1cn(-c2cccc(Cl)c2F)nn1 (stereo unspecified) | -10.4 |
| COCCCNC(=O)CN1CCC(c2ccccc2)C1 (stereo unspecified) | -7.32 |
| CSCC(CCO)NC(=O)c1cccc(Cl)c1F (stereo unspecified) | -16.7 |
| COC(=O)CN1CCSC(c2ccccc2)C1 (stereo unspecified) | -13.2 |
| COCCOCC(=O)Nc1cccc(CN(C)C(C)=O)c1 | 27.5 |
| O=C(NCC1CCCO1)c1csc(Cc2ccccc2)n1 (stereo unspecified) | 50.7 |
| COc1ccccc1-c1cc(NC(=O)CC2CCS(=O)(=O)C2)[nH]n1 (stereo unspecified) | -9.57 |
| COCCN1CCN(CC(=O)N(C)Cc2ccsc2)CC1C (stereo unspecified) | -7.6 |
| CS(=O)(=O)CCNCc1ccc(OCc2ccccn2)cc1 | 0.418 |
| C[S+]([O-])CCNCc1ccc(OCc2cscn2)cc1 (stereo unspecified) | 1.77 |

| SMILES | cytotoxicity at 70.5 h [%] |
| --- | --- |
| Cc1ccc(-n2ccnc2)c(C(=O)NCCOCC2CCCO2)c1 (stereo unspecified) | -1.48 |
| CN1CCC(NC(=O)Nc2ccc(F)c(-n3cccc3)c2)C1=O (stereo unspecified) | -12.5 |
| CN1CCC(NC(=O)Nc2ccc(Br)c(F)c2)C1=O (stereo unspecified) | 1.65 |
| CC(C)n1cc2cc(NC(=O)CCS(C)(=O)=O)ccc2n1 | 23.6 |
| O=C1N(CC2CC2)C2(CCSCC2)NC12CCCC2 | 30.4 |
| O=C(c1cccc2cc[nH]c12)N1CCC2(CCOC2)C1 (stereo unspecified) | 1.91 |
| CC(=O)Nc1ccc2nn(C(C)C)cc2c1 | -8.47 |
| CN(C)c1nccc(CNS(=O)(=O)c2ccc(F)c(Cl)c2)n1 | -5.5 |
| Cc1cc(F)c(S(=O)(=O)NCc2ccnc(N(C)C)n2)cc1F | 29.1 |
| COCCN1CCN(CC(=O)N(C)Cc2cccc(F)c2)CC1C (stereo unspecified) | 0.133 |
| O=C(c1cccc2[nH]ccc12)N1CCC2(CCOC2)C1 (stereo unspecified) | 2.34 |
| COCCN1CCN(CC(=O)N(C)Cc2ccsc2)CC1 | -6.03 |
| C1CCC(NCCN2CCOCC2)C1 | 16.9 |
| CCN(CC)C(=O)N1CCN(C2=NCC(C)S2)CC1 (stereo unspecified) | -9.33 |
| COCCOc1ccccc1CNCC1COC2(CCCC2)O1 (stereo unspecified) | 0.252 |
| O=C(COCC1CC1)Nc1cc(-c2ccc(Br)s2)n[nH]1 | -5.77 |
| Cc1cc(C(=O)NCCN2CCCCC2)nn1C(C)(C)C | -18 |
| CC(NC(=O)NCc1cccnc1N(C)C)c1ccc(F)cc1 (stereo unspecified) | -23.2 |
| O=C(NCc1cccnc1N1CCCCC1)c1ccc2[nH]nnc2c1 | 41.6 |
| CC(=O)NCC1CCCN(C(=O)Cc2c(C)noc2C)C1 (stereo unspecified) | -22.9 |
| Cc1noc(C)c1CC(=O)N1CCCC(n2ccnc2C)C1 (stereo unspecified) | -15.6 |
| CN(CCc1ccncc1)c1cnn(C)c(=O)c1Br | -24.9 |

| SMILES | cytotoxicity at 70.5 h [%] |
| --- | --- |
| CN(C)c1cc2c(nn1)CCN(C(=O)c1ccc(-n3cccn3)nc1)C2 | -25.2 |
| CNc1cc2c(nn1)CCN(C(=O)c1ccc(-n3cccn3)nc1)C2 | -14.4 |
| CC(CNC(=O)c1cnc[nH]1)Oc1ccc(Cl)cc1 (stereo unspecified) | -22.4 |
| CN(CCNC(=O)Nc1nccs1)Cc1ccc(F)cc1 | -13.1 |
| NC(=O)c1cc(C2CCCN(CCc3ccc4c(c3)CCO4)C2)n[nH]1 (stereo unspecified) | -19 |
| Cc1nc(COc2ccc(N(C)S(C)(=O)=O)cc2)sc1C | 48 |
| Cc1ncsc1C(=O)OCCN1CCCc2ccccc21 | -22.3 |
| Cc1nnc(-c2cccc(C#N)c2)n1C1CCCN(C(C)C)C1=O (stereo unspecified) | -9.5 |
| CN(Cc1cnccn1)c1cncc(Br)c1 | -22 |
| Cc1cc(Cl)c(C)c(S(=O)(=O)N2CCN(Cc3ccccn3)CC2)c1Cl | 40.2 |
| Cc1cc(C(=O)NCCN2CCC(C)CC2)nn1C(C)(C)C | -15.3 |
| Cc1cc(C(=O)NCCN2CCCCCC2)nn1C(C)(C)C | -4.89 |
| COCC(=O)N1CCN(C(C)c2ncc(-c3ccccc3)o2)CC1 (stereo unspecified) | -13.2 |
| COc1ccccc1OC(C)CNC(=O)c1cnc[nH]1 (stereo unspecified) | -21.2 |
| CC(c1ncc(-c2ccccc2)o1)N1CCN(C(=O)C(C)(C)C)CC1 (stereo unspecified) | -25.9 |
| c1ccn2c(C3CCCN3Cc3nc(C4CC4)no3)nnc2c1 (stereo unspecified) | -21.8 |
| COc1c(C2CCCN2Cc2cn3ccsc3n2)c(C)nn1C (stereo unspecified) | -6.12 |
| CC(c1cc(F)ccc1F)N(C)CCS(=O)(=O)CCC(N)=O (stereo unspecified) | -8.99 |
| CC(C)N(CCNC(=O)c1n[nH]c2ccccc12)C(C)C | -7.32 |
| COc1ccc(C(C)N2CCC(C(=O)NC3CC3)CC2)cc1Cl (stereo unspecified) | -7.15 |
